Literature values as cited in patent US20020022649A1, “STABLE PHARMACEUTICAL FORMULATION” (priority 1998, published 2002).

Conditions: centchroman as a racemate

## COc1ccc2c(c1)OC(C)(C)C(c1ccccc1)C2c1ccc(OCCN2CCCC2)cc1 (racemic) [centchroman, 3,4-trans-2,2-dimethyl-3-phenyl-4-[4-(2-pyrrolidin-1-yl)ethoxy)phenyl]-7-methoxychroman]
  cholesterol lowering, serum concentrations: significant decrease of the serum concentrations
